In brackets after ≈: the same amount, converted by molar mass. Where a name gives a salt, the structure may show the parent alone. Read-outs that look alike come from different tables or passages of the source.
How the values were obtained:
[1] = test system: Wistar-Han rats; test: Inhibition of carrageenan edema; assay type: in vivo; settings: dose 100 mg/kg; for inhibition in vivo at 100 mg/kg: Rattus norvegicus, read-out: CE: inhibition of carrageenan-induced edema, % of inh.
[2] = biological target: LTB4 receptor (Cavia porcellus, UniProt H0VYV8); test: LTB4 receptor binding study; settings: 3H-LTB4, guinea-pig spleen membranes; for IC50: read-out: Inh. of LTB4 rec. binding, IC50; for inhibition at 20 µM: read-out: Inh. of LTB4 rec. binding, %
Procedure: LTB4 Receptor Binding Study
A slightly modified method of Cheng and coworkers (Cheng J. B. et al.: J. Pharm. Expl. Ther. 236, 126 (1986)) was used. The membrane fraction was prepared from male guinea-pig spleen; 2 mg of membranes were incubated with 0.3 nM ^3 H-LTB4 at 25° C. for 30 min in 100 μl of the incubated mixture. The nonspecific binding was determined in the presence of 0.1 μM LTB4. The membranes were filtered though Whatman GF/C paper and washed triply with buffer. The radioactivity was measured by liquid scintillation spectrometry, and the specific binding of ^3 H-LTB4 to the receptor was determined.

[3] = biological target: T1, LTD4 receptor (Cavia porcellus, UniProt Q2NNR5); test: LTD4 receptor binding study; settings: 3H-LTD4, guinea-pig lung membranes; for inhibition at 20 µM / inhibition at 100 µM: read-out: Inh. of LTD4 rec. binding, %; for IC50: read-out: Inh. of LTD4 rec. binding, IC50
T1 construct: The membrane fraction was prepared from male guinea-pig lungs; from tissue; host or cells: male guinea-pig lung membranes
T1 sequence (Q2NNR5 1-340): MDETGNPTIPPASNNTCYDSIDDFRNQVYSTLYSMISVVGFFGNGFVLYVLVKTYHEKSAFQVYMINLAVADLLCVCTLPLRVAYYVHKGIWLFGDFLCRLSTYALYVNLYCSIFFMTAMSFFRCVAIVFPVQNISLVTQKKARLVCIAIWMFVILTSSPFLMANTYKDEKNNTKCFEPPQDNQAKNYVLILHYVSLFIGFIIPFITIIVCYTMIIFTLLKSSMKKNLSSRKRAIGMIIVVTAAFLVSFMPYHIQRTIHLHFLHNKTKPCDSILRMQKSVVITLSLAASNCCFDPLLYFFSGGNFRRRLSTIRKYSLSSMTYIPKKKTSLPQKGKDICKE
Procedure: LTD4 Receptor Binding Study
This study was performed according to the method of Burns and coworkers (Burns R. F. et al.: Life Sci. 33, 645 (1983)). The membrane fraction was prepared from male guinea-pig lungs, and 4 mg of this fraction were incubated with 0.4 nM ^3 H-LTD4 for 60 min at 25° C. in 100 μl of the incubated mixture. The nonspecific binding was determined in the presence of 0.1 μM LTD4. The filtration of the membranes, washing, and radioactivity measurement were as above.

[4] = test system: peroxidation of lipids from the hepatic cells membranes; test: Antioxidant effect in vitro; assay type: biochemical; settings: at 100 μg
Excerpt: Antioxidant Effect in vitro
The end-product, malonic dialdehyde, was transformed to coloured complex with thiobarbituric acid and determined spectrophotometrically. The antioxidant effect was expressed in % of peroxidation inhibition in the presence of the compound tested in comparison to a control sample.

[5] = test system: LTB4 production in rat polymorphonuclear cells; test: Ex vivo inhibition of LTB4 production (LTB4 biosynthesis); assay type: cell-based; settings: for IC50: Rattus norvegicus, read-out: Inh. of LTB4 biosynth., IC50; for Inh. of LTB4 biosynth., %: at 30 μg (%/μg)
Procedure: Ex vivo Inhibition of LTB4 Production The production of LTB4 was determined in rat polymorphonuclear cells from pleural exudate elicited by heat-activated rat serum (Palmer R. M. J., Salmon J. A.: Immunology 50, 65 (1983)). The cells were stimulated with the Ca ionophore A 23187 (Sigma) and incubated with various concentrations of the drugs tested. The sample containing only buffer was used for the determination of unaffected biosynthesis; the complete inhibition was measured in a sample with 100 μg of NDGA in 1 ml. LTB4 was determined in supernatant using a commercial RIA kit (Amersham).

[6] = test system: rats; test: Inhibition of carrageenan-induced pleuritis in rats; assay type: in vivo; settings: dose 100 mg/kg, oral, values with mark n: p > 0.05; for inhibition in vivo at 100 mg/kg: Rattus norvegicus, po, 4 h
Procedure: Inhibition of Carrageenan-induced Pleuritis in Rats
(Hidaka T. J.: Pharm. Pharmacol. 38, 242 (1986) 1 ml of 0.5% carrageenan solution in saline was administered intrapleurally to experimental animals under mild ether anesthesia. Test drugs were administered in single oral dose 1 h before carrageenan injection, 4 h following the carrageenan application the rats were killed and exudate was withdrawn from opened pleural cavity. The volume of exudate, its cellularity and total cell number were determined.

[7] = test system: male mice; test: Inhibition of arachidonic acid-induced ear inflammation in mice; assay type: in vivo; settings: for inhibition in vivo at 200 mg/kg: Mus musculus, po, 1 h
Procedure: Inhibition of Arachidonic Acid-induced Ear Inflammation in Mice (Opas E. E. et al.: J. Invest. Dermatol. 84, 253 (1985) Ear inflammation was induced in male mice by 20 μl of arachidonic acid dissolved in acetone (concentration 100 mg/ml). The mice were sacrificed 1 h after application of arachidonic acid and the ears were cut off by standard means. The other, vehicle-treated ear of the same animal served as a control. The degree of ear hyperemia and the weight of ear lobes were evaluated. Test compounds were administered orally 1 h before the induction of inflammation.

[8] = read-out: Experimental pleuritis, A: volume of exudate in pleural cavity, % of inh.
[9] = read-out: Experimental pleuritis, B: number of cells, % of inh.
[10] = read-out: Experimental pleuritis, C: cellularity in a volume unit, % of inh.
[11] = values with mark n: p > 0.05, read-out: Ear edema, D: edema of ear lobe, % of inh.
[12] = values with mark n: p > 0.05, read-out: Ear edema, E: hyperemia of ear lobe, % of inh.
[13] = dose 200 mg/kg, oral, values with mark n: p > 0.05, 200 mg/kg

Sequence of LTB4 receptor (H0VYV8 1-348): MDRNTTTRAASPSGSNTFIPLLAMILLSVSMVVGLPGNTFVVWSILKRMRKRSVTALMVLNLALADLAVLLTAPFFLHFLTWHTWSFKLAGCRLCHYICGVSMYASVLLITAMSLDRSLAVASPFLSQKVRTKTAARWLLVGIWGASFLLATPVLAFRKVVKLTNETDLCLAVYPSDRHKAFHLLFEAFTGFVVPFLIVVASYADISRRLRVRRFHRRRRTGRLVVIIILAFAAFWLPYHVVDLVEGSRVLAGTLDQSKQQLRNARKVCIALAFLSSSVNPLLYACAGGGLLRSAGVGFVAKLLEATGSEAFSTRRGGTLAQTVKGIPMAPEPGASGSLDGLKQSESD

| SMILES | inhibition in vivo at 100 mg/kg [1] [%] | IC50 [2] [µM] | inhibition at 20 µM ([2]; at 20 μM) [%] | Antiox. effect, % of peroxidation inhibition [4] [%] | IC50 [5] [µg/mL] | Inh. of LTB4 biosynth., % [5] [%] | inhibition in vivo at 100 mg/kg [6, 8] [%] | inhibition in vivo at 100 mg/kg [6, 9] [%] | inhibition in vivo at 100 mg/kg [6, 10] [%] | inhibition in vivo at 200 mg/kg [7, 11] [%] | inhibition in vivo at 200 mg/kg [7, 12] [%] | IC50 [3] [µM] | inhibition at 100 µM [3] [%] | other results |
| --- | --- | --- | --- | --- | --- | --- | --- | --- | --- | --- | --- | --- | --- | --- |
| O=C(O)Cc1ccccc1Sc1cccc(OCCCN2CCN(Cc3ccc(Cl)cc3)CC2)c1 [Compound 28, Dihydrogenmaleate of 2-(3-(3-(1-(4-Chlorobenzyl)piperazin-4-yl)-propoxy)phenylsulfanyl)phenylacetic Acid] | 18 | 7.9 | 69 | 3 | 0.6 (≈ 1.17 µM) | 100 | 10 | 21 | 14 | 16 | 19 |  |  | inhibition at 20 µM [3]: 10% |
| CCCc1c(OCCOc2ccc(Sc3ccc(C(=O)O)cc3)cc2)ccc(C(C)=O)c1O [Compound 1, 4-(4-(2-(4-Acetyl-3-hydroxy-2-propylphenoxy)ethyloxy)phenylsulfanyl)benzoicAcid] | 31 | 17 | 61 | 54 | 3.5 (≈ 7.5 µM) | 100 | 8 | 17 | 9 | 13 | 8 | 10.8 | 98 |  |
| O=C(O)c1ccc(Sc2cccc(OCc3ccc4ccccc4n3)c2)cc1 [Compound 18] | 10 | 92.9 | 24 | 16 | 0.02 (≈ 0.0516 µM) | 100 | 28 | 29 | 1 | 13 | 8 | 1.6 | 100 |  |
| O=C(O)c1ccccc1Sc1cccc(OCc2ccc3cc(Cl)ccc3n2)c1 [Compound 23, Tromethammonium salt of 2-(3-(6-Chloroquinoline-2-ylmethoxy)phenyl-sulfanyl)benzoic Acid] |  | 13.5 |  | 9 |  | 96 |  |  |  |  |  | 0.1 |  | CE: inhibition of carrageenan-induced edema, % of inh. [1]: 50%; Inh. of LTB4 rec. binding, % ([2]; at 20 μM): 33%; inhibition at 20 µM [3]: 99%; Inh. of LTB4 biosynth., IC50 [5]: 0.96 µg/mL; Experimental pleuritis, A: volume of exudate in pleural cavity, % of inh. ([6]; 100 mg/kg): 17%; Experimental pleuritis, B: number of cells, % of inh. ([6]; 100 mg/kg): 31%; Experimental pleuritis, C: cellularity in a volume unit, % of inh. ([6]; 100 mg/kg): 17%; Ear edema, D: edema of ear lobe, % of inh. [7, 13]: 1 (s) %; Ear edema, E: hyperemia of ear lobe, % of inh. [7, 13]: 8% |
| O=C(O)Cc1ccccc1Sc1ccc(OCCCN2CCN(Cc3ccc(Cl)cc3)CC2)cc1 [Compound 27] | 13 |  | 12 | 20 | 9.2 (≈ 18 µM) | 89 | 8 | 61 | 47 | 7 | 22 |  | 22 |  |
| CCCc1c(OCCCCOc2ccc(Sc3ccccc3CC(=O)O)cc2)ccc(C(C)=O)c1O [Compound 26, 2-(4-(4-(4-Acetyl-3-hydroxy-2-propylphenoxy)butoxy)phenylsulfanyl)phenylacetic Acid] | 34 | 18 | 29 | 0 |  | 97 | 20 | 8 | 23 | 17 | 0 | 34.7 | 63 |  |
| CCCc1c(OCCCOc2ccc(Sc3ccccc3CC(=O)O)cc2)ccc(C(C)=O)c1O [Compound 25, 2-(4-(3-(4-Acetyl-3-hydroxy-2-propylphenoxy)propoxy)phenylsulfanyl)phenylacetic Acid] | 7 |  | 19 | 23 |  | 100 | 4 | 38 | 44 | 20 | 16 | 37.5 | 71 |  |
| CCCc1c(OCCCCOc2ccc(Sc3ccccc3C(=O)O)cc2)ccc(C(C)=O)c1O [Compound 7] | 41 | 12 | 68 | 16 |  | 100 | 14 | 35 | 26 | 16 | 5 | 13.6 | 100 |  |
| CCCc1c(OCCCCOc2cccc(Sc3ccc(C(=O)O)cc3[N+](=O)[O-])c2)ccc(C(C)=O)c1O [Compound 9, 4-(3-(4-(4-Acetyl-3-hydroxy-2-propylphenoxy)butoxy)phenylsulfanyl)-3-nitrobenzoic Acid] | 19 | 15 | 65 | 40 |  | 100 | 34 | 54 | 30 | 14 | 2 | 48.4 | 53 |  |
| O=C(O)c1ccccc1Sc1ccc(OCc2ccc3cc(Cl)ccc3n2)cc1 [Compound 21] | 18 | 30.1 | 39 | 0 | 0.08 (≈ 0.19 µM) | 100 | 15 | 12 | 4 | 7 | 3 | 1.7 | 86 |  |

Reference: patent publication US6303612A, “Derivatives of hydroxyphenylsulfanylbenzoic and hydroxphenylsulfanylarylacetic acids” (Leciva, A.S., priority 1998, dated 2001)
